Key:
Type in all cases: cell-based
[1] = test system: Human skin fibroblasts (HSF); assay: Cell proliferation assay (MTT) on HSF cells; details: 72 h, FIG. 6
Excerpt: (§1) Human skin fibroblasts (HSF) were purchased from the Shanghai Cell Bank of China Center for Type Culture Collection under the Chinese Academy of Sciences.
Polypeptide group: Peptide (26), peptide (33), peptide (39) and peptide (49). The test concentrations of all the above samples were 1 ppm, 10 ppm, 50 ppm, 100 ppm, 200 ppm, 500 ppm and 1000 ppm.
Blank control group: PBS.
Positive control group: 2% DMSO.
(§2) Cells in good exponential growth phase were taken. A 0.25% trypsin digestion solution was added so that digestion allowed the adherent cells to fall off, counting 1 to 4×10^5 cells/mL, which were prepared into a cell suspension.
The cell suspension was inoculated into a 96-well plate with 200 µL/well, and cultured in a constant-temperature CO2 incubator for 24 h. […]
20 μL of 5 mg/mL MTT was added to each well and the incubation was continued in the 5% CO2 incubator at 37° C. for 4 h. […] After shaking the plate on a plate shaker for 5 min, a microplate reader was used to determine the OD value of each well at a wavelength of 570 nm, and the cell viability was calculated.
The MTT assay is a method of detecting cell survival and growth. The measured OD values are directly proportional to cell viability. […]

[2] = test system: Human keratinocytes (HaCaT); assay: Photoaging experiment (UV-irradiated HaCaT, MTT); details: 80 mJ/cm^2 UV, 24 h, compared with the UV group, FIG. 7
Procedure: (§3) Human keratinocytes (HaCaT) were purchased from the Kunming Cell Bank of China Center for Type Culture Collection under the Chinese Academy of Sciences.
Polypeptide group: Peptide (26), peptide (33), peptide (39) and peptide (49). The test concentrations of all the above samples were 1 ppm, 10 ppm, 50 ppm, 100 ppm, and 200 ppm.
as §2
The cell suspension was properly diluted and inoculated into a 96-well plate at 10,000 cells/well. When the cells reached approximately 80% confluence, a UV photoaging model was established. In the blank control group, 50 μL of PBS was added, and supplemented with the culture medium to 200 μL, while no UV irradiation was performed. For the UV group and the polypeptide groups, a proper amount of PBS was added to wash the culture repeatedly until colorless, followed by adding 50 μL of PBS and irradiating under an 80 mJ/cm^2 UV light. The distance between the light source and the culture bottle was 15 cm. After irradiation, the PBS was removed. In the UV group, a PBS solution and the culture medium were added to 200 μL; in the polypeptide groups, the culture medium and the samples diluted in a certain ratio were added to 200 μL. The blank control group, the UV group, and the polypeptide groups were further incubated in a 5% CO2 incubator at 37° C. for 24 h.
Then 22 μL of 5 mg/mL MTT was added to each well and the incubation was continued in the 5% CO2 incubator at 37° C. for 4 h. The original solution was removed and 150 µL/well of DMSO was added. After shaking the plate on a plate shaker for 5 min, a microplate reader was used to read the reference OD values at wavelengths of 490 nm and 630 nm.
Skin aging is affected by endogenous and exogenous factors, such as genetics, environmental exposure, UV irradiation, hormonal changes, etc. The accumulation of these factors, especially exposure to UV irradiation, leads to changes in structure, function and appearance of the skin. In this experiment, 80 mJ/cm^2 UV energy was selected for radiation to establish a skin photoaging model.

[3] = test system: Human keratinocytes (HaCaT); assay: Cell scratch assay; details: 24 h, FIG. 8; for order of effects on promoting the proliferation and migration of HaCaT cells: 50-100 ppm
Procedure: as §3
Polypeptide group: Peptide (26), peptide (33), peptide (39) and peptide (49). The test concentrations of all the above samples were 50 ppm and 100 ppm.
Positive control group: 50 U/mL of EGF.
A bottle of HaCaT cells in good exponential growth phase was taken. A 0.25% trypsin digestion solution was added so that digestion allowed the adherent cells to fall off, counting 1 to 4×10^5 cells/mL, which were prepared into a cell suspension.
The cells were inoculated into a 24-well plate at a density of 150,000 cells/well, with 2 mL cell suspension per well. After the cells attached to the wall and grew to 100% confluence, the culture medium was replaced with a medium containing 0.5%-1% fetal bovine serum to maintain the cells for 24 h for synchronization. A sterilized pipette tip was used to scratch a wound, the detached cells were washed off with PBS, and the samples to be tested were added. The incubation was continued in the 5% CO2 incubator at 37° C., and the migration of cells was observed under an optical microscope after 24 h.
The scratch migration experiment of cells can reflect the proliferation and repair ability of cells. A scratch assay was performed on the basis of HaCaT cells growing all over the dish, and the migration of cells was observed under an optical microscope 24 h after administration of the samples to evaluate the effect of the test samples on cell proliferation and migration.

[4] = test system: Human keratinocytes (HaCaT); assay: Determination of hyaluronic acid content; details: 10 ppm, 48 h, compared with blank control group, FIG. 9
Procedure: as §3
Polypeptide group: Peptide (26), peptide (33), peptide (39) and peptide (49). The test concentrations of all the above samples were 10 ppm.
A bottle of HaCaT cells in good exponential growth phase was taken. A 0.25% trypsin digestion solution was added so that digestion allowed the adherent cells to fall off, counting 1 to 4×10^6 cells/mL, which were prepared into a cell suspension.
The cells were inoculated into a 6-well plate at 10^5 cells/well, and grouped when the cells reached approximately 80% confluence. […]
After completion of the culture, cells were scraped off using a cell scraper, and 200 μL of RIPA lysis buffer was added to extract proteins. […] The total protein concentration was quantified to 1 mg/mL using the BCA method. […] The OD value of each well was measured in sequence at 570 nm using a microplate reader within 15 min.
Hyaluronic acid is one of the main matrix ingredients of the human skin epidermis and an important component of the skin barrier. […] This experiment measured the effect of the peptide of the present invention on the hyaluronic acid content to determine whether the peptide of the invention can increase the hyaluronic acid content and thus play a role in moisturizing and anti-aging repair.

[5] = test system: Human skin fibroblasts (HSF); assay: Collagen content assay (collagen I ELISA, UV photoaging model); details: 100 ppm, UV-irradiated HSF, 48 h, FIG. 10
Procedure: as §1
Polypeptide group: Palmitoyl pentapeptide-4 (Palm-Lys-Thr-Thr-Lys-Ser-OH), peptide (26), peptide (32), peptide (33), peptide (39), and peptide (49), all at a test concentration of 100 ppm;
HSF cells in good exponential growth phase were taken. A 0.25% trypsin digestion solution was added so that digestion allowed the adherent cells to fall off, counting 1 to 4×10^6 cells/mL, which were prepared into a cell suspension.
The cell suspension was inoculated into a 6-well plate at 10^5 cells/well. A UV photoaging model was established when the cells reached approximately 80% confluence. In the blank control group, 200 μL of PBS was added, supplemented with the culture medium to 800 μL, while no UV irradiation was performed. For the UV group and the polypeptide groups, a proper amount of PBS was added to wash the culture repeatedly until colorless, followed by adding 200 μL of PBS and irradiating under an 80 mJ/cm^2 UV light. The distance between the light source and the culture bottle was 15 cm. After irradiation, the PBS was removed. In the UV group, a PBS solution and culture medium were added to 800 μL; in the polypeptide groups, the culture medium and the samples diluted in a certain ratio were added to 800 μL. The blank control group, the UV group, and the polypeptide groups were further incubated in a 5% CO2 incubator at 37° C. for 48 h.
After completion of the culture, the cells were scraped off using a cell scraper, mixed by pipetting, and the cell protein was extracted using RIPA and quantified to 1 mg/mL with BCA. The procedure was performed according to the operation instructions of collagen I ELISA. The OD value of each well was measured in sequence at 450 nm using a microplate reader within 15 min.
Collagen is the most abundant protein found in connective tissue, and provides plumpness and firmness to the skin. […] In this experiment, UV-irradiated cells were treated with test samples, and the content of collagen I in corresponding cells was detected to determine whether the peptide of the present invention can promote collagen synthesis.

Compound	activity of photoaged HaCaT keratinocytes ([2]; range of 1-200 ppm)	order of effects on promoting the proliferation and migration of HaCaT cells [3]	collagen content (collagen I) compared with palmitoyl pentapeptide-4 [5]	also measured
C[S+](C)[O-] [DMSO, dimethyl sulfoxide, reference compound]	–	–	–	HSF cell viability (positive control) ([1]; 2% DMSO, compared with blank control group): toxic effect on HSF cells
Ac-Lys-Arg-Tyr-Gly-Trp-NH2 (Ac-KRYGW-NH2) [peptide (49)]	improve the activity of HaCaT keratinocytes to different degrees	peptide (33)>peptide (26)>peptide (49)>peptide (39)	more significantly increase the collagen content	hyaluronic acid content [4]: more superior technical effects
Ac-Lys-Pro-Leu-Trp-His-Val-NH2 (Ac-KPLWHV-NH2) [peptide (33)]	improve the activity of HaCaT keratinocytes to different degrees	peptide (33)>peptide (26)>peptide (49)>peptide (39)	more significantly increase the collagen content	–
Ac-Tyr-Gly-Trp-Lys-Lys-Gln-NH2 (Ac-YGWKKQ-NH2) [peptide (26)]	improve the activity of HaCaT keratinocytes to different degrees	peptide (33)>peptide (26)>peptide (49)>peptide (39)	more significantly increase the collagen content	hyaluronic acid content [4]: more superior technical effects
EGF: Positive control group: 50 U/mL of EGF [reference compound]	–	–	–	cell proliferation and migration of HaCaT cells (positive control) ([3]; 50 U/mL, compared with blank control group): obvious cell proliferation and migration
Ac-Lys-Pro-Leu-Trp-His-Val-OH (Ac-KPLWHV-OH) [peptide (32)]	–	–	more significantly increase the collagen content	–
Ac-Lys-Lys-Trp-Val-Thr-His-NH2 (Ac-KKWVTH-NH2) [peptide (39)]	–	peptide (33)>peptide (26)>peptide (49)>peptide (39)	more significantly increase the collagen content	HSF cell activity / proliferation of HSF fibroblasts ([1]; low concentration of 1-10 ppm): significantly increase cell activity and promote the proliferation of HSF fibroblasts; activity of photoaged HaCaT keratinocytes ([2]; at 1 ppm, 100 ppm and 200 ppm): improve cell activity

Reference: patent US20260078144A1, “ACTIVE PEPTIDE, AND COMPOSITION AND USE THEREOF” (WINKEY TECHNOLOGY USA INC, priority 2023, published 2026)
